Target: human F508del-CFTR (Homo sapiens, UniProt P13569, DEL508-508)
Assay: F508del-CFTR cell surface expression (corrector activity), DiscoveRx ß-galactosidase complementation chemiluminescence assay in recombinant U2OS cell line;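 also: U2OS cells co-expressing ProLink-tagged F508del-CFTR and a membrane-anchored enzyme acceptor, where more surface CFTR restores β-galactosidase activity measured by chemiluminescence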
Conditions: for EC50: EC50, F508del-CFTR cell surface expression; for Emax: U2OS
[1] = U2OS cells, 16h compound incubation, geomean values
[2] = in relation to Emax of corrector lumacaftor (=100%), arithmetic mean values

Chain of human F508del-CFTR (P13569 with tags, fused parts or gaps DEL508-508): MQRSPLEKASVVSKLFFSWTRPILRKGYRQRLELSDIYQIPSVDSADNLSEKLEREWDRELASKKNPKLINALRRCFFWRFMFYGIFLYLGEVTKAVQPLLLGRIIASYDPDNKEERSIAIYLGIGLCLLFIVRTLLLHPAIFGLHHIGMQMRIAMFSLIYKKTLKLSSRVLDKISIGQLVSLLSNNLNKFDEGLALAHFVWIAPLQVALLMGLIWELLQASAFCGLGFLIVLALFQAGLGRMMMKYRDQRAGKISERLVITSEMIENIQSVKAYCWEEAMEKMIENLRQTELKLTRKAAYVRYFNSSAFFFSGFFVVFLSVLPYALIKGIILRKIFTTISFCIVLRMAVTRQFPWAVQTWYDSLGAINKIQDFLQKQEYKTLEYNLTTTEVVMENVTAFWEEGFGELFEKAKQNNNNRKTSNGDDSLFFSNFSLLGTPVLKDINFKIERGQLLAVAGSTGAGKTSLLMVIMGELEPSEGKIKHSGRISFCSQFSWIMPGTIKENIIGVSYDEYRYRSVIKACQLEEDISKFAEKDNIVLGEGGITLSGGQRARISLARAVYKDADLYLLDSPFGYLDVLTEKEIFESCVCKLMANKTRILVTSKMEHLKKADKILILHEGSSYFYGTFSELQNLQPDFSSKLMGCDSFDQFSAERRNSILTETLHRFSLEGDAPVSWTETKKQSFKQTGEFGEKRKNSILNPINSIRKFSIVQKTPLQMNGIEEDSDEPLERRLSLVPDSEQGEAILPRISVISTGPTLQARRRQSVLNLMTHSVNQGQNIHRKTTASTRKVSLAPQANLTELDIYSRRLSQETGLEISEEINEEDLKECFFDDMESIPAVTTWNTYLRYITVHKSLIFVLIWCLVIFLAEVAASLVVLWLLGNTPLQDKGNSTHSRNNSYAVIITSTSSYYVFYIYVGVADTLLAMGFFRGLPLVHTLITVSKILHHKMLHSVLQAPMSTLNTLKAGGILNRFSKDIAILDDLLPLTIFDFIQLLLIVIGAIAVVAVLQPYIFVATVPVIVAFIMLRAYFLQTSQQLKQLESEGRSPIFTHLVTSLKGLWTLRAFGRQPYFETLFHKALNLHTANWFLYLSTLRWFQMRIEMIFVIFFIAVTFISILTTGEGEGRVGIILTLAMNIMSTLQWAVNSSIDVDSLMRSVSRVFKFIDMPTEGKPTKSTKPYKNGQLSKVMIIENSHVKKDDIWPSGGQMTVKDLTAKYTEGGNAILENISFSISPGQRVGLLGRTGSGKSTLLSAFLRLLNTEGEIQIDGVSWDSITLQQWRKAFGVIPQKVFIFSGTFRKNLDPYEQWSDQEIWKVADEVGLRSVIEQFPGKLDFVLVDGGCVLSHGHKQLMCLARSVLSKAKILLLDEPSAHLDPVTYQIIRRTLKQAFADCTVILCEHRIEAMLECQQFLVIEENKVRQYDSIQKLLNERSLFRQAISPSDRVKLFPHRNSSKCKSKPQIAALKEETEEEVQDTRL

| SMILES | EC50 [1] [nM] | Emax [2] [%] | other results |
| --- | --- | --- | --- |
| COc1cccc(CCNC(=O)[C@@H]2CC(=O)N(C)[C@@H](CC(C)C)C(=O)N3CC[C@@H](C3)C(=O)N[C@H](Cc3ccccc3)COc3ccc(OC)cc3C(=O)N2)c1 [Example 584, (13S,4R,10S,14S)-4-benzyl-14-isobutyl-74-methoxy-N-(3-methoxyphenethyl)-13-methyl-2,8,12,15-tetraoxo-6-oxa-3,9,13-triaza-1(3,1)-pyrrolidina-7(1,2)-benzenacyclopentadecaphane-10-carboxamide] | 575 | 156 |  |
| COc1cccc(CCNC(=O)[C@@H]2CC(=O)N(C)[C@@H](CC(C)C)C(=O)N(C)[C@@H](COC(C)(C)C)C(=O)N[C@H](Cc3ccccc3)COc3ccc4ccccc4c3C(=O)N2)c1 (mixture of isomers) [Example 717, (3S,7S,10RS,13R)-13-benzyl-10-(tert-butoxymethyl)-7-isobutyl-N-(3-methoxyphenethyl)-6,9-dimethyl-1,5,8,11-tetraoxo-1,2,3,4,5,6,7,8,9,10,11,12,13,14-tetradecahydronaphtho[1,2-p][1]oxa[4,7,10,14]tetraazacycloheptadecine-3-carboxamide] | 69 | 348 |  |
| COCCc1ccc(-c2noc(C[C@@H]3C(=O)N[C@H](Cc4ccccc4)COc4ccnc(OC)c4C(=O)N[C@H](C(=O)NCCc4cc(OC)no4)CC(=O)N(C)[C@@H](CC(C)C)C(=O)N3C)n2)cc1 [Example 868, (3R,6R,9S,13S)-3-benzyl-9-isobutyl-16-methoxy-6-((3-(4-(2-methoxyethyl)phenyl)-1,2,4-oxadiazol-5-yl)methyl)-N-(2-(3-methoxyisoxazol-5-yl)ethyl)-7,10-dimethyl-5,8,11,15-tetraoxo-2,3,4,5,6,7,8,9,10,11,12,13,14,15-tetradecahydropyrido[3,4-p][1]oxa[4,7,10,14]tetraazacycloheptadecine-13-carboxamide] |  |  | EC50 (U2OS cells, 16h compound incubation, geomean of several measurements): 18 nM; Emax (in relation to the Emax of the corrector lumacaftor (=100%), U2OS cells, 16h compound incubation, arithmetic mean): 397% |
| COc1cccc2c1C(=O)N[C@H](C(=O)NCCc1ccc(C)cc1)CC(=O)N(C)[C@@H](CC(C)C)C(=O)N(CCC1CCCCC1)CC(=O)N[C@H](Cc1ccccc1)CO2 [Example 202, (3R,9S,13S)-3-benzyl-7-(2-cyclohexylethyl)-9-isobutyl-16-methoxy-10-methyl-N-(4-methylphenethyl)-5,8,11,15-tetraoxo-2,3,4,5,6,7,8,9,10,11,12,13,14,15-tetradecahydrobenzo[p][1]oxa[4,7,10,14]tetraazacycloheptadecine-13-carboxamide] |  |  | EC50 (U2OS cell line, 16h compound incubation, geomean values): 187 nM; Emax (in relation to the Emax of the corrector lumacaftor (=100%), U2OS cell line, 16h compound incubation, arithmetic mean values): 160% |
| CC(C)C[C@H]1C(=O)N(C)C2(CC2)C(=O)N[C@H](Cc2ccccc2)COc2cnc3ccc(F)cc3c2C(=O)N[C@H](C(=O)NCCc2cc(C3CC3)no2)CC(=O)N1C [Example 519, (3′S,7′S,13′R)-13′-benzyl-N-(2-(3-cyclopropylisoxazol-5-yl)ethyl)-20′-fluoro-7′-isobutyl-6′,9′-dimethyl-1′,5′,8′,11′-tetraoxo-2′,3′,4′,5′,6′,7′,8′,9′,11′,12′,13′,14′-dodecahydro-1′H-spiro[cyclopropane-1,10′-[1]oxa[4,7,10,14]tetraazacycloheptadecino[17,16-c]quinoline]-3′-carboxamide] | 184 | 332 |  |
| COc1cc(CCNC(=O)[C@@H]2CC(=O)N(C)[C@@H](CC(C)C)C(=O)N(C)[C@H](Cc3nc(-c4ccc(F)cn4)no3)C(=O)N[C@H](Cc3ccccc3)COc3ccc4ncc(F)cc4c3C(=O)N2)on1 [Example 795, (3S,7S,10R,13R)-13-benzyl-20-fluoro-10-((3-(5-fluoropyridin-2-yl)-1,2,4-oxadiazol-5-yl)methyl)-7-isobutyl-N-(2-(3-methoxyisoxazol-5-yl)ethyl)-6,9-dimethyl-1,5,8,11-tetraoxo-1,2,3,4,5,6,7,8,9,10,11,12,13,14-tetradecahydro-[1]oxa[4,7,10,14]tetraazacycloheptadecino[16,17-f]quinoline-3-carboxamide] | 141 | 384 |  |
